Consider 77 sequences from the supplement of paper PMC11208160.
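Note: IS621 recombinase and bridge RNA in Escherichia coli cells.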

This series is described as follows: recombinant barcode read abundance after kanamycin selection (control-corrected) (log10(CPM+1)); higher = more efficient recombination; sequences stand for … in AGTGCAGAGAAAATCGGCCAGTTTTCTCTGCCTGCAGTCCGCATGCCGT…AGATTTATGCAGCGGACTGCCTTTCTCCCAAAGTGATAAACCGGACAGTATCATGGACCGGTTTTCCCGGTAATCCGTATTTGCAAGGTTGGTTTCACT; site = the 11-nt target. The method, boiled down: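 Reported as log10(CPM+1), each value stands for recombination efficiency. That efficiency is the averaged, control-corrected counts per million of barcodes found at recombinant junctions. Cells from a pooled E. coli library pairing targets with IS621 bridge RNA target-binding loops were plated twice on chloramphenicol/ampicillin LB agar (control) and twice on chloramphenicol/ampicillin/kanamycin with 0.1 mM IPTG.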
On to “AGTACTACTTGGGTTCTAACCTGTTGCCT (site ACTACTACTAG)”, for which the “recombinant barcode read abundance (log10)” value was determined as 0.0106.
“AGTACTACTTGGGTTCTAACCTGTTGCCT (site AGTACTACTAG)”: the “recombinant barcode read abundance (log10)” value was determined as 0.25.
The result for “AGTACTACTTGGGTTCTAACCTGTTGCCT (site ATTACTACTAG)” reads 0.162; that for “AGTAGGCCTTGGGTTCTAACCTGTTGCGG (site AGTAGGCCTCC)”, 1.4; that for “AGTAGGCCTTGGGTTCTAACCTGTTGCGG (site GGTAGGACTCC)”, 0.303.
The result for “AGTAGGGCTTGGGTTCTAACCTGTTGCAG (site AGTAGGGCTCT)” reads 2.65; that for “AGTAGGGCTTGGGTTCTAACCTGTTGCAG (site CGTAGGGCTCG)”, 0.0704; that for “AGTATCGCTTGGGTTCTAACCTGTTGCGG (site AGTATCGCTCC)”, 1.11.
In the case of “AGTATCGCTTGGGTTCTAACCTGTTGCGG (site AGTCTCGCTCC)” it was 0.11; in that of “AGTATCGCTTGGGTTCTAACCTGTTGCGG (site AGTGTCGCTCC)”, 0.0704; in that of “AGTATCGCTTGGGTTCTAACCTGTTGCGG (site AGTTTCGCTCC)”, 0.246.
Consider “AGTATGTCTTGGGTTCTAACCTGTTGCCT (site AGTATGTCTAG)”, for which the “recombinant barcode read abundance (log10)” value was 1.13.
The result for “AGTATGTCTTGGGTTCTAACCTGTTGCCT (site CGTATGTCTAG)” reads 0.184; that for “AGTATGTCTTGGGTTCTAACCTGTTGCCT (site GGTATGTCTAG)”, 0.0305.
As to “AGTATGTCTTGGGTTCTAACCTGTTGCCT (site TGTATGTCTAG)”, the “recombinant barcode read abundance (log10)” value turned out to be 0.116.
For the sequence “AGTCACACTTGGGTTCTAACCTGTTGCAG (site AGTCACACTCT)”, the “recombinant barcode read abundance (log10)” value was 1.44.
On to “AGTCACACTTGGGTTCTAACCTGTTGCAG (site TTGTGAGCTGC)”, for which the “recombinant barcode read abundance (log10)” value amounted to 0.153.
Turning to “AGTCACACTTGGGTTCTAACCTGTTGCTG (site AGTCACACTCA)”, the “recombinant barcode read abundance (log10)” value was determined as 1.18.
In the case of “AGTCACACTTGGGTTCTAACCTGTTGCTG (site AGTCACACTTA)” it was 0; in that of “AGTCCACCTTGGGTTCTAACCTGTTGCCT (site AGTCCACCTAG)”, 1.53; in that of “AGTCCACCTTGGGTTCTAACCTGTTGCCT (site CGTCCACCTAG)”, 0.166.
For the sequence “AGTCCACCTTGGGTTCTAACCTGTTGCCT (site GGTCCACCTAG)”, the “recombinant barcode read abundance (log10)” value came out at 0.132.
In the case of “AGTCCACCTTGGGTTCTAACCTGTTGCCT (site TGTCCACCTAG)” it was 0.49; in that of “AGTCCGTCTTGGGTTCTAACCTGTTGCAT (site AGTCCGTCTAT)”, 1.29.
For “AGTCCGTCTTGGGTTCTAACCTGTTGCAT (site CTAATAGCTTG)”, the “recombinant barcode read abundance (log10)” value stood at 0.0391.
The result for “AGTCGGACTTGGGTTCTAACCTGTTGCTT (site AGTCATACTAA)” reads 0.446.
“AGTCGGACTTGGGTTCTAACCTGTTGCTT (site AGTCGGACTAA)”: the “recombinant barcode read abundance (log10)” value stood at 0.517.
In the case of “AGTCGTACTTGGGTTCTAACCTGTTGCCT (site AGACGTACTAG)” it was 0.166; in that of “AGTCGTACTTGGGTTCTAACCTGTTGCCT (site AGCCGTACTAG)”, 0.213; in that of “AGTCGTACTTGGGTTCTAACCTGTTGCCT (site AGGCGTACTAG)”, 0.0589.
Turning to “AGTCGTACTTGGGTTCTAACCTGTTGCCT (site AGTCGTACTAG)”, the “recombinant barcode read abundance (log10)” value was 0.536.
On to “AGTCTAGCTTGGGTTCTAACCTGTTGCCA (site AGTCTAGCTAG)”, for which the “recombinant barcode read abundance (log10)” value was 0.176.
In the case of “AGTCTAGCTTGGGTTCTAACCTGTTGCCA (site AGTCTAGCTCG)” it was 0.217; in that of “AGTCTAGCTTGGGTTCTAACCTGTTGCCA (site AGTCTAGCTGG)”, 0.548.
With “AGTCTAGCTTGGGTTCTAACCTGTTGCCA (site AGTCTAGCTTG)”, the “recombinant barcode read abundance (log10)” value stood at 0.493.
In the case of “AGTCTAGCTTGGGTTCTAACCTGTTGCGG (site AGGATAGCTCC)” it was 0.479; in that of “AGTCTAGCTTGGGTTCTAACCTGTTGCGG (site AGTCTAGCTCC)”, 1.33; in that of “AGTCTGCCTTGGGTTCTAACCTGTTGCCT (site AGTCTGCCTAG)”, 0.427.
The result for “AGTCTGCCTTGGGTTCTAACCTGTTGCCT (site CGTCTGCCTAG)” reads 0.0547.
In the case of “AGTCTGCCTTGGGTTCTAACCTGTTGCCT (site GGTCTGCCTAG)” it was 0.0978; in that of “AGTCTGCCTTGGGTTCTAACCTGTTGCCT (site TGTCTGCCTAG)”, 0.0318; in that of “AGTGAACCTTGGGTTCTAACCTGTTGCCT (site AGCTAACCTAG)”, 0.013.
As to “AGTGAACCTTGGGTTCTAACCTGTTGCCT (site AGTGAACCTAG)”, the “recombinant barcode read abundance (log10)” value came to 1.84.
“AGTGAATCTTGGGTTCTAACCTGTTGCCT (site AGAGAATCTAG)”: the “recombinant barcode read abundance (log10)” value amounted to 0.13.
The result for “AGTGAATCTTGGGTTCTAACCTGTTGCCT (site AGCGAATCTAG)” reads 0.249; that for “AGTGAATCTTGGGTTCTAACCTGTTGCCT (site AGGGAATCTAG)”, 0.286; that for “AGTGAATCTTGGGTTCTAACCTGTTGCCT (site AGTGAATCTAG)”, 0.541.
The result for “AGTGCGTCTTGGGTTCTAACCTGTTGCCT (site AGTGCGTCTAG)” reads 1.52.
With “AGTGCGTCTTGGGTTCTAACCTGTTGCCT (site CGTGCGTCTAG)”, the “recombinant barcode read abundance (log10)” value came out at 0.043.
Turning to “AGTGCGTCTTGGGTTCTAACCTGTTGCCT (site GGTGCGTCTAG)”, the “recombinant barcode read abundance (log10)” value is 0.241.
In the case of “AGTGCGTCTTGGGTTCTAACCTGTTGCCT (site TGTGCGTCTAG)” it was 0.0164; in that of “AGTGCTCCTTGGGTTCTAACCTGTTGCGG (site AGAGCTCCTCC)”, 0.196.
The result for “AGTGCTCCTTGGGTTCTAACCTGTTGCGG (site AGTGCTCCTCC)” reads 0.18; that for “AGTGTCACTTGGGTTCTAACCTGTTGCGG (site AGTGTCACTCC)”, 2.77; that for “AGTGTCACTTGGGTTCTAACCTGTTGCGG (site GTGCAACCTAG)”, 0.0283.
In the case of “AGTTAATCTTGGGTTCTAACCTGTTGCTT (site AGCTACTCTAA)”, the “recombinant barcode read abundance (log10)” value was 0.0347.
The result for “AGTTAATCTTGGGTTCTAACCTGTTGCTT (site AGTTAATCTAA)” reads 0.0371; that for “AGTTAGTCTTGGGTTCTAACCTGTTGCGG (site AATTAGTCTCC)”, 0.00949.
In the case of “AGTTAGTCTTGGGTTCTAACCTGTTGCGG (site AGTTAGTCTCC)” it was 1.43; in that of “AGTTGCTCTTGGGTTCTAACCTGTTGCCT (site AGTTGCTCTAG)”, 0.468.
The result for “AGTTGCTCTTGGGTTCTAACCTGTTGCCT (site GGTTGCACTAG)” reads 0.268; that for “AGTTGTCCTTGGGTTCTAACCTGTTGCGT (site AGTTGTCCTAA)”, 0.121; that for “AGTTGTCCTTGGGTTCTAACCTGTTGCGT (site AGTTGTCCTAC)”, 1.21.
In the case of “AGTTGTCCTTGGGTTCTAACCTGTTGCGT (site AGTTGTCCTAG)”, the “recombinant barcode read abundance (log10)” value worked out at 0.108.
The result for “AGTTGTCCTTGGGTTCTAACCTGTTGCGT (site AGTTGTCCTAT)” reads 0.251.
“AGTTTCACTTGGGTTCTAACCTGTTGCTA (site AGTTTCACTTA)”: the “recombinant barcode read abundance (log10)” value was 0.111.
In the case of “AGTTTCACTTGGGTTCTAACCTGTTGCTA (site GCCAAGGCTAG)” it was 1.31; in that of “AGTTTCGCTTGGGTTCTAACCTGTTGCGG (site AGTATCGCTCC)”, 0.215; in that of “AGTTTCGCTTGGGTTCTAACCTGTTGCGG (site AGTCTCGCTCC)”, 0.0337.
“AGTTTCGCTTGGGTTCTAACCTGTTGCGG (site AGTGTCGCTCC)”: the “recombinant barcode read abundance (log10)” value is 0.0655.
The result for “AGTTTCGCTTGGGTTCTAACCTGTTGCGG (site AGTTTCGCTCC)” reads 0.0842; that for “ATAAGAGCTTGGGTTCTAACCTGTTGCCT (site ATAAAAGCTAG)”, 0.385.
For “ATAAGAGCTTGGGTTCTAACCTGTTGCCT (site ATAACAGCTAG)”, the “recombinant barcode read abundance (log10)” value was determined as 0.0202.
For “ATAAGAGCTTGGGTTCTAACCTGTTGCCT (site ATAAGAGCTAG)”, the “recombinant barcode read abundance (log10)” value came to 1.15.
“ATAAGAGCTTGGGTTCTAACCTGTTGCCT (site ATAATAGCTAG)”: the “recombinant barcode read abundance (log10)” value is 0.179.
Turning to “ATAAGCTCTTGGGTTCTAACCTGTTGCCG (site ATAAGCTCTCG)”, the “recombinant barcode read abundance (log10)” value came to 1.92.
Consider “ATAAGCTCTTGGGTTCTAACCTGTTGCCG (site GAGCAACCTAA)”, for which the “recombinant barcode read abundance (log10)” value worked out at 0.0688.
